From patent publication US11040028B2, “Penicinotam derivative, preparation method and use thereof” (OCEAN UNIVERSITY OF CHINA, priority 2017, dated 2021)

Columns and labels:
Assay type in all cases: cell-based
[1] = test system: cardiac fibroblast RAT-iCell-C002; assay: Anti-fibrosis activity test: inhibition of proliferation of cardiac fibroblast RAT-iCell-C002 (CCK-8); conditions: Cardiac fibroblast, 48 h
Protocol: (§1) BHK-21 cells in exponential growth phase were selected. After the fusion growth reached 85-95%, normal passage method was utilized to digest and collect the cells, followed by cell counting and adjusting the cell density to 2×10^4 cells/mL. The cells were seeded into 96-well plates, 100 μL/well, and were incubated under the condition of 5% CO2 at 37° C.
(§2) The supernatant was removed after the cells had adhered to the wall for 24 hours. The culture solution containing the prepared compounds at different concentrations were added to the wells, 100 μL/well, each concentration in triplicate. The cells were subcultured for 48 hours after administration. Commercially available pirfenidone was employed as the positive control.
(§3) 10 μL of CCK-8 solution ( 1/10 of the volume of the culture solution) was added to each well 48 hours after the administration, and incubated for 2 hours. The absorbance (A) of each well was determined by a microplate reader at 450 nm wavelength. The inhibition rate against cell proliferation for each compound was calculated based on A, wherein inhibition rate against cell proliferation (inhibition ratio, IR)=(1−value of experimental group (Ai)/value of blank control group (Ao))×100% and the IC50 value of each compound was calculated by the data processing software.
(§4) Using the same protocol for the cell experiments, the inhibitory activity of the test compounds against the proliferation of human lung fibroblasts HFL1, human hepatic stellate cells LX-2, human fibrosarcoma cells HT-1080, human dermal fibroblasts CCC-ESF-1, human embryonic lung fibroblast IMR-90, cardiac fibroblast RAT-iCell-C002 was assayed.

BHK-21 cells = assay: Anti-fibrosis activity test: inhibition of BHK-21 cell proliferation (CCK-8)
Protocol: as §1, §2, §3

[2] = test system: human fibrosarcoma cells HT-1080; assay: Anti-fibrosis activity test: inhibition of proliferation of human fibrosarcoma cells HT-1080 (CCK-8)
Protocol: as §1, §2, §3, §4

[3] = test system: human hepatic stellate cells LX-2; assay: Anti-fibrosis activity test: inhibition of proliferation of human hepatic stellate cells LX-2 (CCK-8)
Protocol: as §1, §2, §3, §4

[4] = test system: human lung fibroblasts HFL1; assay: Anti-fibrosis activity test: inhibition of proliferation of human lung fibroblasts HFL1 (CCK-8)
Protocol: as §1, §2, §3, §4

[5] = test system: human embryonic lung fibroblast IMR-90; assay: Anti-fibrosis activity test: inhibition of proliferation of human embryonic lung fibroblast IMR-90 (CCK-8)
Protocol: as §1, §2, §3, §4

[6] = test system: human dermal fibroblasts CCC-ESF-1; assay: Anti-fibrosis activity test: inhibition of proliferation of human dermal fibroblasts CCC-ESF-1 (CCK-8)
Protocol: as §1, §2, §3, §4

[7] = cardiac fibroblast RAT-iCell-C002, CCK-8, 48 hours
[8] = Mesocricetus auratus, BHK-21, 48 h, CCK-8, 48 hours after administration
[9] = Homo sapiens, HT-1080, 48 h, human fibrosarcoma cells HT-1080, CCK-8, 48 hours
[10] = Homo sapiens, 48 h, human hepatic stellate cells LX-2, CCK-8, 48 hours
[11] = Homo sapiens, HFL1, 48 h, human lung fibroblasts HFL1, CCK-8, 48 hours
[12] = human embryonic lung fibroblast IMR-90, CCK-8, 48 hours
[13] = Fibroblast, human dermal fibroblasts CCC-ESF-1, CCK-8, 48 hours
[14] = CCK-8, 48 hours after administration
[15] = human lung fibroblasts HFL1, CCK-8, 48 hours
[16] = human dermal fibroblasts CCC-ESF-1, CCK-8, 48 hours

Row | IC50 [2, 9] [mM] | Compound | IC50 [1, 7] [mM] | IC50 (BHK-21 cells; [8]) [mM] | IC50 [3, 10] [mM] | IC50 [4, 11] [mM] | IC50 [5, 12] [mM] | IC50 [6, 13] [mM] | other results
1 | 0.05 to 5 | CC(C)CCn1c2c(c(=O)c3cc(F)c(N4CCNCC4)cc31)C(=O)n1cccc1-2 [Compound 347a, 7-Fluoro-4-isopentyl-6-(piperazin-1-yl)-9H-pyrrolizino[1,2-b]quinoline-9,10(4H)-dione] | 0.05 to 5 | 0.05 to 5 | 5 to 20 | 0.05 to 5 | 0.05 to 5 | 0.05 to 5 | –
2 | – | O=C(Cn1c2c(c(=O)c3ccccc31)C(=O)n1cccc1-2)c1ccc(C(F)(F)F)cc1 [Compound 91a, 4-(2-Oxo-2-(4-(trifluoromethyl)phenyl)ethyl)-9H-pyrrolizino[1,2-b]quinoline-9,10(4)-dione] | – | – | – | – | – | – | IC50 ([2]; human fibrosarcoma cells HT-1080, CCK-8, 48 hours): 5 to 20 mM; IC50 ([3]; human hepatic stellate cells LX-2, CCK-8, 48 hours): 0.05 to 5 mM
3 | 0.05 to 5 | CC(C)CCn1c2c(c(=O)c3cc(F)ccc31)C(=O)n1cccc1-2 [Compound 105a, 7-Fluoro-4-isopentyl-9H-pyrrolizino[1,2-b]quinoline-9,10(4H)-dione] | 0.05 to 5 | 0.05 to 5 | 0.05 to 5 | 0.05 to 5 | 0.05 to 5 | 0.05 to 5 | –
4 | 0.05 to 5 | O=C1c2c(n(Cc3ccc(Cl)cc3)c3cc(N4CCNCC4)cc(F)c3c2=O)-c2cccn21 [Compound 647a, 4-(4-Chlorobenzyl)-8-fluoro-6-(piperazin-1-yl)-9H-pyrrolizino[1,2-b]quinoline-9,10(4H)-dione] | 0.05 to 5 | 0.05 to 5 | 0.05 to 5 | 0.05 to 5 | 0.05 to 5 | 0.05 to 5 | –
5 | 0.05 to 5 | O=C1c2c(n(Cc3ccccc3Cl)c3cccc(Cl)c3c2=O)-c2cccn21 [Compound 645a, 8-Chloro-4-(2-chlorobenzyl)-9H-pyrrolizino[1,2-b]quinoline-9,10(4H)-dione] | 0.05 to 5 | 0.05 to 5 | 0.05 to 5 | 0.05 to 5 | 0.05 to 5 | < 0.05 | –
6 | < 0.05 | N#Cc1cc2c(OCc3ccc(-c4ccccc4)cc3)c3c(nc2cc1N1CCNCC1)-c1cccn1C3=O [Compound 643b, 9-([1,1′-biphenyl]-4-ylmethoxy)-10-oxo-6-(piperazin-1-yl)-10H-pyrrolizino[1,2-b]quinoline-7-carbonitrile] | 0.05 to 5 | 0.05 to 5 | 0.05 to 5 | 0.05 to 5 | 0.05 to 5 | 0.05 to 5 | –
7 | 0.05 to 5 | O=C1c2c(nc3cc(N4CCNCC4)c(F)cc3c2OCc2ccc(Cl)cc2)-c2cccn21 [Compound 632b, 9-((4-chlorobenzyl)oxy)-7-fluoro-6-(piperazin-1-yl)-10H-pyrrolizino[1,2-b]quinolin-10-one] | 0.05 to 5 | 0.05 to 5 | 0.05 to 5 | 0.05 to 5 | 0.05 to 5 | 0.05 to 5 | –
8 | – | Cc1ccc2n1C(=O)c1c-2nc2ccccc2c1O [Compound 800b, 9-hydroxy-1-methyl-10H-pyrrolizino[1,2-b]quinolin-10-one] | – | – | – | – | – | – | IC50 ([1]; RAT-iCell-C002 cells, CCK-8): 0.05 to 5 mM; IC50 (BHK-21 cells; Mesocricetus auratus, BHK-21, 48 h, 48 h, CCK-8): 0.05 to 5 mM; IC50 ([2]; Homo sapiens, HT-1080, 48 h, HT-1080 cells, 48 h, CCK-8): 0.05 to 5 mM; IC50 ([3]; Homo sapiens, LX-2, 48 h, LX-2 cells, 48 h, CCK-8): 0.05 to 5 mM; IC50 ([4]; Homo sapiens, HFL1, 48 h, HFL1 cells, 48 h, CCK-8): 0.05 to 5 mM; IC50 ([5]; Homo sapiens, IMR-90 cells, 48 h, CCK-8): 0.05 to 5 mM; IC50 ([6]; Homo sapiens, Fibroblast, CCC-ESF-1 cells, 48 h, CCK-8): 0.05 to 5 mM
9 | 0.05 to 5 | N#Cc1cc2c(OCc3ccc(C(F)(F)F)cc3)c3c(nc2cc1N1CCNCC1)-c1cccn1C3=O [Compound 642b, 10-oxo-6-(piperazin-1-yl)-9-((4-(trifluoromethyl)benzyl)oxy)-10H-pyrrolizino[1,2-b]quinoline-7-carbonitrile] | 0.05 to 5 | 0.05 to 5 | 0.05 to 5 | 0.05 to 5 | 0.05 to 5 | 0.05 to 5 | –
10 | 5 to 20 | N#Cc1cc2c(=O)c3c(n(Cc4ccc(-c5ccccc5)cc4)c2cc1N1CCNCC1)-c1cccn1C3=O [Compound 643a, 4-([1,1′-Biphenyl]-4-ylmethyl)-9,10-dioxo-6-(piperazin-1-yl)-4,10-dihydro-9H-pyrrolizino[1,2-b]quinoline-7-carbonitrile] | 0.05 to 5 | < 0.05 | 0.05 to 5 | 0.05 to 5 | 0.05 to 5 | 0.05 to 5 | –
11 | 0.05 to 5 | O=C1c2c(nc3cc(N4CCNCC4)c(F)cc3c2OCc2ccc(F)cc2)-c2cccn21 [Compound 634b, 7-fluoro-9-((4-fluorobenzyl)oxy)-6-(piperazin-1-yl)-10H-pyrrolizino[1,2-b]quinolin-10-one] | 0.05 to 5 | 0.05 to 5 | 0.05 to 5 | 0.05 to 5 | 0.05 to 5 | 0.05 to 5 | –
12 | 0.05 to 5 | N#Cc1ccc(Cn2c3c(c(=O)c4cc(C#N)c(N5CCNCC5)cc42)C(=O)n2cccc2-3)cc1 [Compound 641a, 4-(4-Cyanobenzyl)-9,10-dioxo-6-(piperazin-1-yl)-4,10-dihydro-9H-pyrrolizino[1,2-b]quinoline-7-carbonitrile] | 0.05 to 5 | 0.05 to 5 | 0.05 to 5 | 0.05 to 5 | 0.05 to 5 | 0.05 to 5 | –
13 | 0.05 to 5 | N#Cc1ccc(COc2c3c(nc4cc(N5CCNCC5)c(F)cc24)-c2cccn2C3=O)cc1 [Compound 635b, 4-(((7-fluoro-10-oxo-6-(piperazin-1-yl)-10H-pyrrolizino[1,2-b]quinolin-9-yl)oxy)methyl)benzonitrile] | 0.05 to 5 | 0.05 to 5 | 0.05 to 5 | 0.05 to 5 | 0.05 to 5 | 0.05 to 5 | –
14 | 0.05 to 5 | O=C1c2c(nc3cc(N4CCNCC4)c(F)cc3c2OCc2ccc(C(F)(F)F)cc2)-c2cccn21 [Compound 636b, 7-fluoro-6-(piperazin-1-yl)-9-((4-(trifluoromethyl)benzyl)oxy)-10H-pyrrolizino[1,2-b]quinolin-10-one] | 0.05 to 5 | 0.05 to 5 | 0.05 to 5 | 0.05 to 5 | 0.05 to 5 | 0.05 to 5 | –
15 | 0.05 to 5 | N#Cc1ccccc1-c1ccc(Cn2c3c(c(=O)c4cc(F)c(N5CCNCC5)cc42)C(=O)n2cccc2-3)cc1 [Compound 638a, 4′-((7-Fluoro-9,10-dioxo-6-(piperazin-1-yl)-9H-pyrrolizino[1,2-b]quinolin-4(10H)-yl)methyl)-[1,1′-biphenyl]-2-carbonitrile] | 0.05 to 5 | 0.05 to 5 | 0.05 to 5 | 0.05 to 5 | 0.05 to 5 | 0.05 to 5 | –
16 | – | Cc1cc2n(c1)C(=O)c1c-2nc2ccccc2c1O [Compound 801b, 9-hydroxy-2-methyl-0H-pyrrolizino[1,2-b]quinolin-10-one] | – | – | – | – | – | – | IC50 (BHK-21 cells; 48 h, CCK-8): 0.05 to 5 mM
17 | – | O=C1c2c(nc3cc(N4CCNCC4)ccc3c2OCc2ccc(F)cc2F)-c2cccn21 [Compound 630b, 9-((2,4-difluorobenzyl)oxy)-6-(piperazin-1-yl)-10H-pyrrolizino[1,2-b]quinolin-10-one] | – | – | – | – | – | – | IC50 (BHK-21 cells; [14]): 0.05 to 5 mM; IC50 [4, 15]: 5 to 20 mM
18 | – | O=C1c2c(n(Cc3cc(C(F)(F)F)cc(C(F)(F)F)c3)c3cc(N4CCNCC4)c(F)cc3c2=O)-c2cccn21 [Compound 639a, 4-(3,5-Bis(trifluoromethyl)benzyl)-7-fluoro-6-(piperazin-1-yl)-9H-pyrrolizino[,2-b]quinoline-9,10(4H)-dione] | – | – | – | – | – | – | IC50 [6, 16]: < 0.05 mM
19 | – | O=C1c2c(n(Cc3ccc(F)cc3F)c3cc(N4CCNCC4)ccc3c2=O)-c2cccn21 [Compound 630a, 4-(2,4-Difluorobenzyl)-6-(piperazin-1-yl)-9H-pyrrolizino[1,2-b]quinoline-9,10(4H)-dione] | – | – | – | – | – | – | IC50 (BHK-21 cells; [14]): < 0.05 mM; IC50 [4, 15]: < 0.05 mM
20 | – | N#Cc1ccc2nc3c(c(OCc4ccc(-c5ccccc5C#N)cc4)c2c1)C(=O)n1cccc1-3 [Compound 629b, 9-((2′-cyano-[1,1′-biphenyl]-4-yl)methoxy)-10-oxo-10H-pyrrolizino[,2-b]quinoline-7-carbonitrile] | – | – | – | – | – | – | IC50 (BHK-21 cells; [14]): 0.05 to 5 mM; IC50 [6, 16]: 0.05 to 5 mM
